Assay results taken from US20160060660A1, “BIOTECHNOLOGICAL PRODUCTION OF ITACONIC ACID” (UNIVERSITÉ DU LUXEMBOURG, priority 2013, published 2016).
Where two headings read alike, the source gives them in different places.

Experiments:
[1] = tested on: Mycobacterium tuberculosis H37Rv; format: cell-based
[2] = tested on: Salmonella enterica serovar Typhimurium
Description: Salmonella enterica serovar Typhimurium bacteria were grown in liquid medium as detailed in the text in the presence different concentrations of itaconic acid or cis-aconitate (5, 10, 50, 100 mM). Growth was measured as optical density (OD) at indicated time points.

[3] = tested on: human PBMCs-derived macrophages; test: NO donor treatment of human PBMCs-derived macrophages, itaconic acid levels; format: cell-based; conditions: 1, 10, 100 μM, with or without LPS, 12 h
Description: Human PBMCs were seeded and differentiated into macrophages as described above. Diethylamine NONOate (DEA NONOate, Sigma), an intracellular NO donor, was added at different concentrations (1, 10, 100 μM) alone or together with LPS (100 μg/ml). After 12 h of incubation, the metabolites were extracted.
After 12 h, 180 μl of medium was harvested and combined with 20 μl of 1 mM NaOH on ice to stop the dissociation reaction. Levels of nitrite formed from the reaction with H2O were determined using the Griess assay. In brief, 50 μl of medium sample or nitrite IC standard (Sigma) was pipetted in triplicate in a 96-well plate. To each well, equal volumes of 1× Griess Reagent (Sigma) were added. Absorbance was read at 540 nm and nitrite concentrations were calculated.

Irg1 protein = target: T1, Irg1 protein (Mus musculus, UniProt P54987); test: Cis-aconitate decarboxylase activity of extracts and purified fractions from HEK293T cells transfected with pCMV6-Entry-Irg1; format: biochemical; conditions: 1 mM cis-aconitate, 30° C., 40 min
T1 construct: made in house; host or cells: HEK293T
T1 sequence (P54987 1-488): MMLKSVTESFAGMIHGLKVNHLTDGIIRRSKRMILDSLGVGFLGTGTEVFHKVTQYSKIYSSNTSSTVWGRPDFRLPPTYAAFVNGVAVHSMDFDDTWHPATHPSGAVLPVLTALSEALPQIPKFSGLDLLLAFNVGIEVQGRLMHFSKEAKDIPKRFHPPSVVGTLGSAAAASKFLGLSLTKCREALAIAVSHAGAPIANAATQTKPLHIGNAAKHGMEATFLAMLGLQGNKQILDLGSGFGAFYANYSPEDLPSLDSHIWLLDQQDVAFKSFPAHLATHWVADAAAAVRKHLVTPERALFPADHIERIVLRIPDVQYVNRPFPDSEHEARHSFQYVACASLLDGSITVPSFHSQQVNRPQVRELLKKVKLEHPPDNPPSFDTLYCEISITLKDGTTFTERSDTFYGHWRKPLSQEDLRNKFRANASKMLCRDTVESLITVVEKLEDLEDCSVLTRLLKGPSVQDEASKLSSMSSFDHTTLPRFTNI
Description: Protein concentration was measured by the Bradford assay using Bradford reagent (Bio-Rad). […] Reactions were stopped by addition of 900 μl methanol/water (8:1) mix. […] (Labconco).

human IRG1 = target: T2, human IRG1 (Homo sapiens, UniProt A6NK06); test: CAD activity assay, Michaelis-Menten kinetics of purified human IRG1; format: biochemical; conditions: substrate cis-aconitic acid 0 to 1 mmol/l, pH=6.2, 37° C., read-out: Michaelis-Menten constant KM for itaconic acid formation
T2 construct: made in house
T2 sequence (A6NK06 1-481): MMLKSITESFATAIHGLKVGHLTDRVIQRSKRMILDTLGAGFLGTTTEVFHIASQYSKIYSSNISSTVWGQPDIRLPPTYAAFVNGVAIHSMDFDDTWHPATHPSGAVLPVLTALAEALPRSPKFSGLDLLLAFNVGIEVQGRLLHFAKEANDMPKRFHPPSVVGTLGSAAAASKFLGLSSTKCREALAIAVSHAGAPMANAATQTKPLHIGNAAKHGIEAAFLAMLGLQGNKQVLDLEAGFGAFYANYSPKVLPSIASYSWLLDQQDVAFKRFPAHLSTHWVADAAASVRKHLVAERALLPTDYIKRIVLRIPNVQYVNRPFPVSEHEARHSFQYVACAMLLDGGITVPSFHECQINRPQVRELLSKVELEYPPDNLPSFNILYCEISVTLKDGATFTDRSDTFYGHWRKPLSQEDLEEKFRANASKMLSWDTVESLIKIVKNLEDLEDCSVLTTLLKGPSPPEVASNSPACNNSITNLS
Description: (§1) The purified proteins were then used for enzyme activity assays. Cis-aconitic acid was used as a substrate at concentrations in the range of 0 to 1 mmol*I^−1 at pH=6.2 and 37° C. To determine the time dependent itaconic acid production, itaconic acid level was measured after 5 and 15 min of incubation. To determine the correlation between itaconic acid production and IRG1 activity, the substrate concentrations were plotted against the rate of itaconic acid formation.
(§2) Proteins produced in HEK293FT cells, which have been transfected with human and mouse pCMV6-Irg1 overexpression plasmid as well as pCMV6-Entry plasmid, were purified, separated on SDS-Page, detected with western blotting or silver staining and characterized with in-vitro enzyme assays.
(§3) Enzyme solutions were used from F1 as well as F2 and cis-aconitic acid and citric acid were used as substrates. Sampling took place 5 min and 15 min after enzyme supplementation. 95 μl enzyme solution were transferred into sampling tubes containing 230 μl methanol at −20° C. and centrifuged for 10 min at 4° C. with 16,000×g. 290 μl were dried in glass vials under vacuum and analyzed with GC-MS. […] The kinetic parameter Km of the purified enzymes was determined with Michaelis-Menten model using the statistical tool R (R Development Core Team, 2011).

murine IRG1 = target: T3, murine IRG1 (Mus musculus, UniProt P54987); test: CAD activity assay, Michaelis-Menten kinetics of purified murine IRG1; format: biochemical; conditions: substrate cis-aconitic acid 0 to 1 mmol/l, pH=6.2, 37° C., read-out: Michaelis-Menten constant KM for itaconic acid formation
T3 construct: made in house
T3 sequence (P54987 1-488): T1 sequence (P54987 1-488)
Description: as §1, §2, §3

O=C(O)/C=C(/CC(=O)O)C(=O)O [cis-aconitate, cis-aconitic acid, reference compound]
effect on M. tuberculosis growth ([1]; medium supplemented with cis-aconitate, acetate or glycerol): more pronounced growth | effect on S. enterica growth ([2]; medium supplemented with cis-aconitate, acetate): more pronounced growth

CCN(CC)/[N+]([O-])=N/O.CCNCC [diethylamine NONOate, Diethylamine NONOate]
effect on intracellular itaconic acid levels [3]: could not detect any effect

C=C(CC(=O)O)C(=O)O [itaconic acid]
concentration at which growth of M. tuberculosis was completely inhibited [1]: 25 to 50 mM | effect on M. tuberculosis growth ([1]; glycerol as carbon source): does not affect the bacterial growth | concentration inhibiting M. tuberculosis growth ([1]; glycerol with 0.1 μM propionate): 5 to 10 mM | effect on S. enterica growth ([2]; glucose as carbon source): does not affect the bacterial growth | concentration at which significant effects on S. enterica growth were observed ([2]; liquid medium with acetate as unique carbon source): 10 mM

FLAG-tagged Irg1 protein: FLAG-tagged Irg1 protein from HEK293T cells transfected with pCMV6-Entry-Irg1; presumably murine Irg1
cis-aconitate decarboxylase activity (Irg1 protein): catalyzed the conversion of cis-aconitate to itaconic acid

IRG1 human: Flag-tagged human immune-responsive gene 1 protein (SEQ ID NO 2) purified from transfected HEK293T cells
Km (human IRG1): 30 µM

IRG1 mouse: Flag-tagged mouse immune-responsive gene 1 protein (SEQ ID NO 4) purified from transfected HEK293T cells
Km (murine IRG1): 70 µM
